Patent publication US4425356A, “Lankacidin derivatives used in swine husbandry” (Takeda Chemical Industries, Ltd., priority 1980, dated 1984)
≈ marks a conversion by molar mass, not a printed value. Where “and” joins values, the source holds several entries; their conditions need not be identical. Equal values may be shown once. Read-outs that look alike come from different tables or passages of the source.

Columns and labels:
[1] = test system: Treponema hyodysenteriae 78/A strain; assay: efficacy against swine dysentery under experimental infection conditions in pigs (drug in feed), Test Examples 5-7; type: in vivo, Landrace pigs; details: for Body weight gain / Feed conversion / Feed intake: 21 day period; for Body weight gain / Feed conversion / Feed intake / Body weight at the time of completion of test: mean per head
Description: Lankacidin C was tested for efficacy against swine dysentery under experimental infection conditions. Thus, twelve 6-week-old Landrace pigs (4 per group) were used. The test drug was admixed to a concentration of 100 ppm with the domestically formulated starter feed for young pigs without antibiotics. The animals were provided with the ration ad libitum. Infection of the pigs was effected by direct intragastrical administration to the SPF pigs of an inoculum prepared by preliminary anaerobic cultivation of the Treponema hyodysenteriae 78/A strain on a 5% horse blood added agar plate, mashing together with the culture medium and admixing with 5% mucin added phosphate buffer. Colonic contents and mucosa were collected from pigs which developed typical signs of swine dysentery, and diluted two-fold with 5% mucin added phosphate buffer. The dilution was used as the final inoculum, and 100 ml of the dilution was directly injected into the stomach of test pigs at the age of 7 weeks (fasted for 24 hours before infection). The pigs were fed for 21 days following infection.
The data are each the mean value per head for the 21day period from
infection to autopsy. Different alphabetic letters on the same line
indicate that there is a significant difference between the data to which
they are attached (P <0.05).
Lankacidin C was tested at concentrations in feed of 100 ppm and lower by the same method as in Test Example 5, with carbadox, a commonly used anti-swine-dysentery agent, for comparison.
The anti-swine-dysentery effects of 10 ppm each of lankacidin A and lankacidin C 14-propionate were examined by the procedure of Test Example 6.

[2] = test system: Treponema hyodysenteriae; assay: in vitro antibacterial activity (MIC, agar dilution method), Test Examples 1-3; type: cell-based; details: 37° C., 2 days, anaerobic; for MIC: Brachyspira hyodysenteriae, 48 h
Description: Several agents were tested for in vitro antibacterial activity against Treponema hyodysenteriae, the pathogenic bacteria causing swine dysentery, by the method of testing drug sensitivity of Treponema hyodysenteriae (Kashiwazaki et al. Abstracts of Papers presented at the 82nd Meeting of the Japanese Society of Veterinary Science, page 101, 1976).
(1) Strains: These strains belong to Treponema hyodysenteriae isolated
from the bloody mucous faeces of dysenteric pigs in Japan.
(2) Antimicrobial activity assay: Agar dilution method
(3) Inoculum size: A loopful of bacterial suspension (10^6 CFU/ml)
(4) Cultural conditions: GasPak anaerobic system (BBL), 37° C., 2
Typical agents among compound (I) were tested for in vitro antibacterial activity by the same method as in Test Example 1.
The experimental conditions are the same as in Test Example 1 (Table 1).
Agents of compound (I) were tested for in vitro antibacterial activity by the same method as in Test Example 1.

[3] = 50 ppm in feed, 21-day test period
[4] = strain 78/A, read-out: Minimum Inhibitory Concentration
[5] = strain CD1 (CD-1), read-out: Minimum Inhibitory Concentration
[6] = strain DJ70P1, read-out: Minimum Inhibitory Concentration
[7] = strain MK-2, read-out: Minimum Inhibitory Concentration
[8] = 100 ppm in feed, 21-day test period

Compound | MIC [2, 4] | MIC [2, 5] | MIC [2, 6] | MIC [2, 7] | other results
COC(=O)N/N=C/c1c[n+]([O-])c2ccccc2[n+]1[O-] [Carbadox, carbadox, reference compound] |  |  |  |  | Number of pigs from which the pathogen was detected, in colonic mucosa ([1]; 50 ppm in feed): 0; Number of pigs from which the pathogen was detected, in feces ([1]; 50 ppm in feed): 0; Number of pigs showing colonic lesions ([1]; 50 ppm in feed): 0; Number of days on which mucous bloody stool was observed [1, 3]: 0 days; Number of pigs showing signs of infection/number of pigs used [1, 3]: 0/4; Body weight gain ([1]; 50 ppm in feed): 473 grams/day and 552 grams/day; Feed conversion ([1]; 50 ppm in feed): 2.08 and 1.83; Feed intake ([1]; 50 ppm in feed): 20.7 kg and 21.2 kg; Body weight at the time of completion of test ([1]; 50 ppm in feed): 21.0 kg and 22.7 kg
CC[C@H]1OC(=O)[C@H](C)[C@@H](O[C@H]2C[C@@](C)(OC)[C@@H](O)[C@H](C)O2)[C@H](C)[C@@H](O[C@@H]2O[C@H](C)C[C@H](N(C)C)[C@H]2O)[C@](C)(O)C[C@@H](C)C(=O)[C@H](C)[C@@H](O)[C@]1(C)O [Erythromycin, reference compound] |  |  |  |  | MIC ([2]; read-out: Minimum Inhibitory Concentration, strain 78/A): > 100 µg/mL; MIC ([2]; read-out: Minimum Inhibitory Concentration, strain CD1 (CD-1)): > 100 µg/mL; MIC ([2]; read-out: Minimum Inhibitory Concentration, strain DJ70P1): > 100 µg/mL; MIC ([2]; read-out: Minimum Inhibitory Concentration, strain MK-2): > 100 µg/mL
CCC(=O)OC1C=CC(C)=CC(NC(=O)C(C)=O)C2(C)C(=O)OC(CC(OC(C)=O)C=CC(C)=CC1)C(C)C2=O (stereo not shown) [Lankacidin A 8-propionate, lankacidin A 8-propionate] | 6.25 µg/mL (≈ 11.2 µM) | 6.25 µg/mL (≈ 11.2 µM) | 6.25 µg/mL (≈ 11.2 µM) | 6.25 µg/mL (≈ 11.2 µM) | 
CC(=O)OC1C=CC(C)=CC(NC(=O)C(C)=O)C2(C)C(=O)OC(CC(OC(C)=O)C=CC(C)=CC1)C(C)C2=O (stereo not shown) [Lankacidin C 8,14-diacetate, lankacidin C 8,14-diacetate] | 3.13 µg/mL (≈ 5.76 µM) | 3.13 µg/mL (≈ 5.76 µM) | 3.13 µg/mL (≈ 5.76 µM) | 1.56 µg/mL (≈ 2.87 µM) | 
CCCC(=O)OC1C=CC(C)=CC(NC(=O)C(C)=O)C2(C)C(=O)OC(CC(OC(=O)CCC)C=CC(C)=CC1)C(C)C2=O (stereo not shown) [Lankacidin C 8,14-dibutyrate] | 1.56 µg/mL (≈ 2.6 µM) | 3.13 µg/mL (≈ 5.22 µM) | 3.13 µg/mL (≈ 5.22 µM) | 3.13 µg/mL (≈ 5.22 µM) | 
CCC(=O)OC1C=CC(C)=CC(NC(=O)C(C)=O)C2(C)C(=O)OC(CC(OC(=O)CC)C=CC(C)=CC1)C(C)C2=O (stereo not shown) [Lankacidin C 8,14-dipropionate, lankacidin C 8,14-dipropionate] | 0.78 µg/mL (≈ 1.36 µM) | 1.56 µg/mL (≈ 2.73 µM) | 0.78 µg/mL (≈ 1.36 µM) | 0.78 µg/mL (≈ 1.36 µM) | 
CC(=O)C(=O)NC1C=C(C)C=CC(OC(=O)c2ccccc2)CC=C(C)C=CC(O)CC2OC(=O)C1(C)C(=O)C2C (stereo not shown) [Lankacidin C 8-benzoate, lankacidin C 8-benzoate] | 0.1 µg/mL (≈ 0.177 µM) | 0.1 µg/mL (≈ 0.177 µM) | 0.1 µg/mL (≈ 0.177 µM) | 0.1 µg/mL (≈ 0.177 µM) | 
CCCC(=O)OC1C=CC(C)=CC(NC(=O)C(C)=O)C2(C)C(=O)OC(CC(O)C=CC(C)=CC1)C(C)C2=O (stereo not shown) [Lankacidin C 8-butyrate] | 0.78 µg/mL (≈ 1.47 µM) | 0.78 µg/mL (≈ 1.47 µM) | 0.78 µg/mL (≈ 1.47 µM) | 0.78 µg/mL (≈ 1.47 µM) | 
CC(=O)C(=O)NC1C=C(C)C=CC(OC(=O)C(C)C)CC=C(C)C=CC(O)CC2OC(=O)C1(C)C(=O)C2C (stereo not shown) [Lankacidin C 8-isobutyrate] | 6.25 µg/mL (≈ 11.8 µM) | 6.25 µg/mL (≈ 11.8 µM) | 3.13 µg/mL (≈ 5.91 µM) | 6.25 µg/mL (≈ 11.8 µM) | 
CCC(=O)OC1C=CC(C)=CC(NC(=O)C(C)=O)C2(C)C(=O)OC(CC(O)C=CC(C)=CC1)C(C)C2=O (stereo not shown) [Lankacidin C 8-propionate, lankacidin C 8-propionate] | 1.56 µg/mL (≈ 3.03 µM) | 1.56 µg/mL (≈ 3.03 µM) | 1.56 µg/mL (≈ 3.03 µM) | 1.56 µg/mL (≈ 3.03 µM) | 
CCCCC(=O)OC1C=CC(C)=CC(NC(=O)C(C)=O)C2(C)C(=O)OC(CC(O)C=CC(C)=CC1)C(C)C2=O (stereo not shown) [Lankacidin C 8-valerate] | 1.56 µg/mL (≈ 2.87 µM) | 3.13 µg/mL (≈ 5.76 µM) | 1.56 µg/mL (≈ 2.87 µM) | 3.13 µg/mL (≈ 5.76 µM) | 
CC(=O)C(=O)NC1C=C(C)C=CC(O)CC=C(C)C=CC(OC(=O)c2ccccc2)CC2OC(=O)C1(C)C(=O)C2C (stereo not shown) [Lankacidin C 14-benzoate, lankacidin C 14-benzoate] | 6.25 µg/mL (≈ 11.1 µM) | 6.25 µg/mL (≈ 11.1 µM) | 6.25 µg/mL (≈ 11.1 µM) | 6.25 µg/mL (≈ 11.1 µM) | 
CCCC(=O)OC1C=CC(C)=CCC(O)C=CC(C)=CC(NC(=O)C(C)=O)C2(C)C(=O)OC(C1)C(C)C2=O (stereo not shown) [Lankacidin C 14-butyrate] | 0.78 µg/mL (≈ 1.47 µM) | 1.56 µg/mL (≈ 2.95 µM) | 1.56 µg/mL (≈ 2.95 µM) | 3.13 µg/mL (≈ 5.91 µM) | 
CC(=O)C(=O)NC1C=C(C)C=CC(O)CC=C(C)C=CC(OC=O)CC2OC(=O)C1(C)C(=O)C2C (stereo not shown) [Lankacidin C 14-formate, lankacidin C 14-formate] | 6.25 µg/mL (≈ 12.8 µM) | 12.5 µg/mL (≈ 25.6 µM) | 6.25 µg/mL (≈ 12.8 µM) | 6.25 µg/mL (≈ 12.8 µM) | 
CC(=O)C(=O)NC1C=C(C)C=CC(O)CC=C(C)C=CC(OC(=O)C(C)C)CC2OC(=O)C1(C)C(=O)C2C (stereo not shown) [Lankacidin C 14-isobutyrate] | 12.5 µg/mL (≈ 23.6 µM) | 25 µg/mL (≈ 47.2 µM) | 12.5 µg/mL (≈ 23.6 µM) | 25 µg/mL (≈ 47.2 µM) | 
CCCCC(=O)OC1C=CC(C)=CCC(O)C=CC(C)=CC(NC(=O)C(C)=O)C2(C)C(=O)OC(C1)C(C)C2=O (stereo not shown) [Lankacidin C 14-valerate] | 3.13 µg/mL (≈ 5.76 µM) | 6.25 µg/mL (≈ 11.5 µM) | 3.13 µg/mL (≈ 5.76 µM) | 6.25 µg/mL (≈ 11.5 µM) | 
CO[C@@H]1[C@@H](O[C@@H]2O[C@H](C)[C@@H](O[C@H]3C[C@@](C)(O)[C@@H](OC(=O)CC(C)C)[C@H](C)O3)[C@H](N(C)C)[C@H]2O)[C@@H](CC=O)C[C@@H](C)[C@@H](O)/C=C/C=C/C[C@@H](C)OC(=O)C[C@H]1O [Leucomycin, reference compound] | > 100 µg/mL | > 100 µg/mL | > 100 µg/mL | > 100 µg/mL | 
CCC[C@@H]1C[C@@H](C(=O)N[C@@H]([C@H]2O[C@H](SC)[C@H](O)[C@@H](O)[C@H]2O)[C@@H](C)O)N(C)C1 [Lincomycin, reference compound] | 50 µg/mL (≈ 123 µM) | 50 µg/mL (≈ 123 µM) | 50 µg/mL (≈ 123 µM) | 50 µg/mL (≈ 123 µM) | 
CO[C@H]1C[C@H](O[C@H]2[C@H](C)[C@@H](O[C@@H]3O[C@H](C)C[C@H](N(C)C)[C@H]3O)[C@@H](C)C[C@@]3(CO3)C(=O)[C@H](C)[C@@H](O)[C@@H](C)[C@@H](C)OC(=O)[C@@H]2C)O[C@@H](C)[C@@H]1O [Oleandomycin, reference compound] | > 100 µg/mL | > 100 µg/mL | > 100 µg/mL | > 100 µg/mL | 
Maridomycin [reference compound] |  |  |  |  | Number of pigs from which the pathogen was detected, in colonic mucosa ([1]; 100 ppm in feed): 4; Number of pigs from which the pathogen was detected, in feces ([1]; 100 ppm in feed): 4; Number of pigs showing colonic lesions ([1]; 100 ppm in feed): 4; Number of days on which diarrhea was observed [1, 8]: 11.0 days; Number of days on which mucous bloody stool was observed [1, 8]: 5.5 days; Number of pigs showing signs of infection/number of pigs used [1, 8]: 3/4; Body weight gain ([1]; 100 ppm in feed): 430 grams/day; Feed conversion ([1]; 100 ppm in feed): 2.09; Feed intake ([1]; 100 ppm in feed): 18.8 kg; Body weight at the time of completion of test ([1]; 100 ppm in feed): 21.9 kg; effect against swine dysentery (in words) ([1]; pig, in vivo): ineffective; Minimum Inhibitory Concentration ([2]; strain 78/A): > 100 µg/mL; Minimum Inhibitory Concentration ([2]; strain CD1 (CD-1)): > 100 µg/mL; Minimum Inhibitory Concentration ([2]; strain DJ70P1): > 100 µg/mL; Minimum Inhibitory Concentration ([2]; strain MK-2): > 100 µg/mL
Spiramycin [reference compound] |  |  |  |  | Minimum Inhibitory Concentration ([2]; strain 78/A): > 100 µg/mL; Minimum Inhibitory Concentration ([2]; strain CD1 (CD-1)): > 100 µg/mL; Minimum Inhibitory Concentration ([2]; strain DJ70P1): > 100 µg/mL; Minimum Inhibitory Concentration ([2]; strain MK-2): > 100 µg/mL
